The IC50 is the concentration that gives 50% inhibition. A higher IC50 goes with weaker potency in that assay.

Sequence of human NaV1.8 (Q9Y5Y9 whole entry): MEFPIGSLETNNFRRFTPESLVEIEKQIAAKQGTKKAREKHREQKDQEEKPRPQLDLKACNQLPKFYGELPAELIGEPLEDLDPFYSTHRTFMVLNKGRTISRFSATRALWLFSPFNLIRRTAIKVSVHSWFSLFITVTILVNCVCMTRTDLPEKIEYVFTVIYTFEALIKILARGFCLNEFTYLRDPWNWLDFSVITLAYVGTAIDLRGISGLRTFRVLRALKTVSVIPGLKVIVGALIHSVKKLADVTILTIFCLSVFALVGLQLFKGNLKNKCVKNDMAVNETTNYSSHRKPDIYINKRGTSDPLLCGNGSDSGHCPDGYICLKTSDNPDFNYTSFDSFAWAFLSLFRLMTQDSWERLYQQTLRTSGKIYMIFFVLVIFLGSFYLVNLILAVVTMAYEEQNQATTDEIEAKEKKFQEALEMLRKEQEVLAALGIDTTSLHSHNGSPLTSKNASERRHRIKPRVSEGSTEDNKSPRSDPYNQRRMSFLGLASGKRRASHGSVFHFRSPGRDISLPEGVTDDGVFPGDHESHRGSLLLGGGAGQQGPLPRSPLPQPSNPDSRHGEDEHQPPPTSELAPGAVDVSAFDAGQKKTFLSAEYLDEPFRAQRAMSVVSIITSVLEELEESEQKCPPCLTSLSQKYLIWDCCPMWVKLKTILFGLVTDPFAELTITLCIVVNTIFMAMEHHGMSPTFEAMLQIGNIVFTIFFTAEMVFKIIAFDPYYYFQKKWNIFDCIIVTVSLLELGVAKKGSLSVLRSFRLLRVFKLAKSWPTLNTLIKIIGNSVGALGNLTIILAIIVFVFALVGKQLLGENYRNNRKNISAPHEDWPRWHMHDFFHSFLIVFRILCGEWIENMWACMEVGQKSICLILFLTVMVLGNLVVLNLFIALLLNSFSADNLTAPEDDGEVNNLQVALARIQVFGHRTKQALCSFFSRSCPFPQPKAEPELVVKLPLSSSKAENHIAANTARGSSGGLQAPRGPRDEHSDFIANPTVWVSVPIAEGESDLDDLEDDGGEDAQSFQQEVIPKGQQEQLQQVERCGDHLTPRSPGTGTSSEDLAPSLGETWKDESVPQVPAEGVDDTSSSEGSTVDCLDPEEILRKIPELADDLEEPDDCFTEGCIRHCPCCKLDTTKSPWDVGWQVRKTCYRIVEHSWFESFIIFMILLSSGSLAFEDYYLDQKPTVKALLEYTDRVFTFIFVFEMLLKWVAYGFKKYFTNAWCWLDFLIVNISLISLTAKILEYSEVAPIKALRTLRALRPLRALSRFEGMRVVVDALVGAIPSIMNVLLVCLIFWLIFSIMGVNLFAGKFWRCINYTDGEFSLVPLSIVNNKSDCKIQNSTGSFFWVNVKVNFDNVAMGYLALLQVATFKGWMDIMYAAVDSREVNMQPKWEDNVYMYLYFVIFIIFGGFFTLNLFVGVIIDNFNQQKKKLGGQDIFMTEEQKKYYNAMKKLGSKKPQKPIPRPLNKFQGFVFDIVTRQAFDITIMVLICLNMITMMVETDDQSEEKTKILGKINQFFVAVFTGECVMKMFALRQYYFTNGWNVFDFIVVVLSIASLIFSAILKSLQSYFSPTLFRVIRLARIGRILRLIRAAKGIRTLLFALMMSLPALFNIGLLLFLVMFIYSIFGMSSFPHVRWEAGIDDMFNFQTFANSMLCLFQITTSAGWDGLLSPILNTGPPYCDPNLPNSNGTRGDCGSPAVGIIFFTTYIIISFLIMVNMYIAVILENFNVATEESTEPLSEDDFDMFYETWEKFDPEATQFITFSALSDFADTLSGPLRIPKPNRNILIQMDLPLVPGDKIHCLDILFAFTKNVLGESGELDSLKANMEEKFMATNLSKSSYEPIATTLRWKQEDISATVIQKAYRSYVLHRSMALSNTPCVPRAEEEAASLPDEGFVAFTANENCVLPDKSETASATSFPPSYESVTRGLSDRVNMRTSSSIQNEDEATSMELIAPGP

This assay addresses human NaV1.8 (Homo sapiens (Human), UniProt Q9Y5Y9). Put plainly: Nav1.8 Qube automated patch-clamp assay. The settings on record: human NaV1.8 stably expressed in HEK 293 cells; automated 384-well patch-clamp; resting or inactivated state not specified. The format is cell-based. An outline of the steps:
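IC50 values from Hill-equation fits of offline percent inhibition: the 1st pulse gave resting and the 10th pulse inactivated-state inhibition. Stimulus was a 10 s, 1 Hz train to 10 mV (holding −90 mV, −67 mV interpulse) applied at room temperature to HEK293 cells stably expressing human NaV1.8 (Qube).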
On the technique in general: In patch-clamp work, channel activity is measured electrically.
Compound `O=C1NC[C@@H](C(=O)NC(c2ccc(F)c(Cl)c2)[C@@H]2CC[C@H]2C(F)(F)F)N1` (single isomer, unassigned) [Example 67A, (S)-N-((R or S)-(3-chloro-4-fluoro-phenyl)(trans-2-(trifluoromethyl)cyclobutyl)methyl)-2-oxoimidazolidine-4-carboxamide] gave an IC50 of 182 nM.

`O=C1NC[C@@H](C(=O)NC(c2ccc(Cl)cc2)c2cnc(C(F)(F)F)[nH]2)N1` (single isomer, unassigned) [Example 22A, (S)—N—((R or S)-(4-chlorophenyl)(2-(trifluoromethyl)-1H-imidazol-4-yl)methyl)-2-oxoimidazolidine-4-carboxamide] had a half-inhibitory concentration (IC50) of 373 nM.

In the case of `N#Cc1cccc(C(NC(=O)[C@@H]2CNC(=O)N2)c2ccc(F)c(Cl)c2)n1` (single isomer, unassigned) [Example 12A, (4S)-N-[((R or S)-3-chloro-4-fluorophenyl)(6-cyanopyridin-2-yl)methyl]-2-oxoimidazolidine-4-carboxamide], the half-maximal inhibitory concentration (IC50) was determined as 81 nM.

As for `O=C1NC[C@@H](C(=O)NC(c2ccc(Cl)cc2)c2ccc3cn[nH]c3c2)N1` (single isomer, unassigned) [Example 82B, (S)-N-((R or S)-(4-chlorophenyl)(1H-indazol-6-yl)methyl)-2-oxoimidazolidine-4-carboxamide], the IC50 is 93 nM.

`C[C@@H]1C[C@H](C(NC(=O)[C@@H]2CNC(=O)N2)c2ccc(F)c(Cl)c2)C[C@H](C)N1CC(F)(F)F` (single isomer, unassigned) [Example 15B, (S)-N-((R or S)-(3-chloro-4-fluoro-phenyl)(cis-2,6-dimethyl-1-(2,2,2-trifluoroethyl)piperidin-4-yl)methyl)-2-oxoimidazolidine-4-carboxamide] came in with an IC50 of 965 nM.

As to `O=C1NC[C@@H](C(=O)NC(c2ccc(OC(F)(F)F)cc2)c2ccc(Cl)c(C3CC3)n2)N1` (single isomer, unassigned) [Example 40B, (S)-N-((R or S)-(5-chloro-6-cyclopropylpyridin-2-yl)(4-(trifluoromethoxy)phenyl)methyl)-2-oxoimidazolidine-4-carboxamide], half-maximal inhibition (IC50) was put at 3.5 nM.

Turning to `CC1(C)CC(C(NC(=O)[C@@H]2CNC(=O)N2)c2ccc(Cl)cc2)CCN1CC(F)(F)F` (single isomer, unassigned) [Example 91B, (4S)—N—((R or S)(4-chlorophenyl)((R or S)2,2-dimethyl-1-(2,2,2-trifluoroethyl)piperidin-4-yl)methyl)-2-oxoimidazolidine-4-carboxamide], the half-inhibitory concentration (IC50) is 899 nM.

For the compound `O=C1NC[C@@H](C(=O)NC(c2ccc(F)c(Cl)c2)[C@H]2CC[C@H](C(F)(F)F)CC2)N1` (single isomer, unassigned) [Example 32B, (4S)—N—((R or S)-(3-chloro-4-fluorophenyl)(trans-4-(trifluoro-methyl)cyclohexyl)methyl)-2-oxoimidazolidine-4-carboxamide], the IC50 came to 67 nM.

Compound `O=C1NC[C@@H](C(=O)NC(c2ccc(F)c(Cl)c2)c2ccc(F)c(OCC(F)(F)F)n2)N1` (single isomer, unassigned) [Example 11A, (4S)-N-{((R or S)-3-chloro-4-fluorophenyl)[5-fluoro-6-(2,2,2-trifluoro-ethoxy)pyridin-2-yl]methyl}-2-oxoimidazolidine-4-carboxamide] came in with a 50% inhibitory concentration (IC50) of 50 nM.

The compound `O=C1NC[C@@H](C(=O)NC(c2ccc(F)c(Cl)c2)c2csc(C3(C(F)(F)F)CC3)n2)N1` (single isomer, unassigned) [Example 16B, (S)-N-((R or S)-(3-chloro-4-fluoro-phenyl)(2-(1-(trifluoromethyl)cyclopropyl)thiazol-4-yl)methyl)-2-oxoimidazolidine-4-carboxamide] came in with an IC50 of 14 nM.

On to `O=C1NC[C@@H](C(=O)NC(CC2CCCCC2)c2ccc(F)c(Cl)c2F)N1` (single isomer, unassigned) [Example 54A, (S)-N-((R or S)-1-(3-chloro-2,4-difluorophenyl)-2-cyclohexylethyl)-2-oxoimidazolidine-4-carboxamide], for which inhibition was half-maximal at 3.2 nM (IC50).

Regarding `O=C1NC[C@@H](C(=O)NC(c2ccc(F)c(Cl)c2)c2cc3cc(Cl)ccc3o2)N1` (single isomer, unassigned) [Example 73B, (S)-N-((R or S)-(3-chloro-4-fluorophenyl)(5-chlorobenzofuran-2-yl)methyl)-2-oxoimidazolidine-4-carboxamide], 0.2 nM corresponded to half-maximal inhibition (IC50).

`CC1(C(=O)NC(c2ccc(Cl)cc2)c2ccc(Cl)cc2)NC(=O)NC1=O` (single isomer, unassigned) [Example 20B, (R or S)—N-(bis(4-chlorophenyl)methyl)-4-methyl-2,5-dioxoimidazolidine-4-carboxamide] returned an IC50 of 9480 nM.

`O=C1NC[C@@H](C(=O)NC(c2cnc(OC(F)F)c(F)c2)c2ccc(F)c(Cl)c2F)N1` (single isomer, unassigned) [Example 42, (S)-N-((R or S)-(3-chloro-2,4-difluorophenyl)(6-(difluoromethoxy)-5-fluoropyridin-3-yl)methyl)-2-oxoimidazolidine-4-carboxamide]: the IC50 stood at 190 nM.

As to `Cn1nc(C(F)(F)F)cc1C(NC(=O)[C@@H]1CNC(=O)N1)c1ccc(F)c(Cl)c1` (single isomer, unassigned) [Example 31A, (S)-N-((R or S)-(3-chloro-4-fluorophenyl)(1-methyl-3-(tri-fluoromethyl)-1H-pyrazol-5-yl)methyl)-2-oxoimidazolidine-4-carboxamide], the half-maximal inhibitory concentration (IC50) turned out to be 5.2 nM.

`O=C1NC[C@@H](C(=O)NC(c2cnc(C(F)(F)F)c(F)c2)c2ccc(F)c(Cl)c2F)N1` (single isomer, unassigned) [Example 44, (S)-N-((R or S)-(3-chloro-2,4-difluoro-phenyl)(5-fluoro-6-(trifluoromethyl)pyridin-3-yl)methyl)-2-oxoimidazolidine-4-carboxamide] came in with a half-maximal inhibitory concentration (IC50) of 3.1 nM.

The compound `Cc1nc2ccc(C(NC(=O)[C@@H]3CNC(=O)N3)c3ccc(Cl)cc3)cc2o1` (single isomer, unassigned) [Example 83B, (S)-N-((R or S)-(4-chlorophenyl)(2-methylbenzo[d]oxazol-6-yl)methyl)-2-oxoimidazolidine-4-carboxamide] gave an IC50 of 201 nM.

Take `CC1(C(=O)NC(c2ccc(Cl)cc2)c2ccc(Cl)cc2)NC(=O)NC1=O` (single isomer, unassigned) [Example 20A, (R or S)—N-(bis(4-chlorophenyl)methyl)-4-methyl-2,5-dioxoimidazolidine-4-carboxamide]: the IC50 is 19200 nM.

Regarding `O=C1NC[C@@H](C(=O)NC(c2ccc(OC(F)(F)F)cc2)c2ccc(F)c(C(F)(F)F)n2)N1` (single isomer, unassigned) [Example 7A, (S)—N—((R or S)-(5-fluoro-6-(trifluoromethyl)pyridin-2-yl)(4-(trifluoromethoxy)phenyl)-methyl)-2-oxoimidazolidine-4-carboxamide], the 50% inhibitory concentration (IC50) is 1.1 nM.

As for `O=C1NC[C@@H](C(=O)NC(c2cnc(OCC(F)(F)F)cn2)c2ccc(F)c(Cl)c2F)N1` (single isomer, unassigned) [Example 51B, N—((R or S)-(3-chloro-2,4-difluorophenyl)(5-(2,2,2-trifluoroethoxy)pyrazin-2-yl)methyl)-2-oxoimidazolidine-4-carboxamide], inhibition was half-maximal at 166 nM (IC50).

With `O=C1NC[C@@H](C(=O)NC(c2ccc(Cl)cc2)c2cnc(C(F)(F)F)[nH]2)N1` (single isomer, unassigned) [Example 22B, (S)—N—((R or S)-(4-chlorophenyl)(2-(trifluoromethyl)-1H-imidazol-4-yl)methyl)-2-oxoimidazolidine-4-carboxamide], half-maximal inhibition (IC50) was put at 6410 nM.

Compound `O=C1NC[C@@H](C(=O)NC(c2ccc(Cl)cc2)c2cccc(OC(F)F)n2)N1` (single isomer, unassigned) [Example 74B, (S)-N-((R or S)-(4-chlorophenyl)(6-(difluoromethoxy)pyridin-2-yl)methyl)-2-oxoimidazolidine-4-carboxamide] gave an IC50 of 244 nM.

The compound `Cn1nc(C(NC(=O)[C@@H]2CNC(=O)N2)c2ccc(Cl)cc2)cc1C(F)(F)F` (single isomer, unassigned) [Example 75B] showed a concentration for half-maximal inhibition (IC50) of 115 nM.

Regarding `O=C1NC[C@@H](C(=O)NC(c2ccc(F)c(Cl)c2)C2C3CN(CC(F)(F)F)CC32)N1` (single isomer, unassigned) [Example 77B, (4S)-N-((1(R or S))-(3-chloro-4-fluorophenyl)(3-(2,2,2-trifluoroethyl)-3-azabicyclo[3.1.0]hexan-6-yl)methyl)-2-oxoimidazolidine-4-carboxamide], the 50% inhibitory concentration (IC50) stood at 267 nM.

Compound `O=C1NC[C@@H](C(=O)NC(c2ccc(C(F)(F)F)nc2)c2csc(C(F)(F)F)n2)N1` (mixture of isomers) [Example 19, (S)-2-oxo-N—((R and S)-(6-(trifluoromethyl)pyridin-3-yl)(2-(trifluoromethyl)thiazol-4-yl)methyl)imidazolidine-4-carboxamide] displayed an IC50 of 116 nM.

Compound `O=C1NC[C@@H](C(=O)NC(CC2CCC(C(F)(F)F)CC2)c2ccc(F)c(Cl)c2F)N1` (single isomer, unassigned) [Example 23C, (S)—N—((R or S)-1-(3-chloro-2,4-difluorophenyl)-2-((cis or trans)-4-(trifluoromethyl)cyclohexyl)ethyl)-2-oxoimidazolidine-4-carboxamide] yielded an IC50 of 62 nM.

`O=C(NC(c1ccc(Cl)cc1)c1ccc(Cl)cc1)C1CNC(=O)N1CCO` (single isomer, unassigned) [Example 21B, (R or S)—N-(bis(4-chlorophenyl)methyl)-3-(2-hydroxyethyl)-2-oxoimidazolidine-4-carboxamide]: the IC50 was found to be 14700 nM.
